Data on 30 molecules can be found in US20240116946A1 (Gilead Sciences, Inc., priority 2022, published 2024).

One assay deals with SARS-CoV-2-NLuc. The assay can be described thus: microbe, parasite or virus in culture. In kind it is cell-based, SARS Coronavirus 2.
The target of assay [1] is recombinant SARS-CoV-2 Main protease (Mpro) (Severe acute respiratory syndrome coronavirus 2 (2019-nCoV) (SARS-CoV-2), UniProt P0DTD1). The assay can be described thus: Cov Mpro Biochemical IC50 Assay. The following applies: read-out: MPro IC50.
[2] abbreviates: recombinant SARS-CoV-2 Mpro 7.5 nM, fluorogenic peptide substrate 40 μM.
[3] abbreviates: Severe acute respiratory syndrome coronavirus, 48 h, read-out: MPro EC50.
[4] abbreviates: recombinant SARS-CoV-2 Mpro, fluorogenic peptide substrate.
Where [5] appears, read: Severe acute respiratory syndrome coronavirus, 48 h; read-out: MPro EC50.

Where two headings read alike, the source gives them in different places.

As usually defined, the EC50 is the concentration giving half of the maximal effect. For orientation: IC50 means the concentration needed to halve the response being measured. In the case of `COc1cc(-c2cc3[nH]c(=O)n(-c4cncc5cccnc45)c(=O)c3s2)c(Cl)cc1F` (single isomer, unassigned) [Example 1009, 6-(2-chloro-4-fluoro-5-methoxy-phenyl)-3-(1,6-naphthyridin-8-yl)-1H-thieno[3,2-d]pyrimidine-2,4-dione], the EC50 in the assay with SARS-CoV-2-NLuc (read-out: MPro EC50) was determined as 3.96 nM. In addition, the half-inhibitory concentration (IC50) in assay [1] (setting [2]) was found to be 3.99 nM.
As for `COc1cc(-c2cc3c(s2)c(=O)n(-c2cncc4c2c(C)nn4C)c(=O)n3CCC#N)c(Cl)cc1F` [Example 925, 3-(6-(2-chloro-4-fluoro-5-methoxyphenyl)-3-(1,3-dimethyl-1H-pyrazolo[3,4-c]pyridin-4-yl)-2,4-dioxo-3,4-dihydrothieno[3,2-d]pyrimidin-1(2H)-yl)propanenitrile], the EC50 with SARS-CoV-2-NLuc (setting [3]) came out at 6.55 nM. The IC50 in assay [1] (setting [2]) turned out to be 6.13 nM.
Take `Cc1cc(-c2cccc(Cl)c2-c2ccc3c(=O)n(-c4cncc5ccccc45)c(=O)[nH]c3c2)ccn1` [Example 331]: the EC50 in the assay on SARS-CoV-2-NLuc (setting [3]) came out at 17 nM. Besides, the IC50 in assay [1] (setting [4]) came out at 10.4 nM.
Consider `O=c1[nH]c2cc(-c3c(Cl)cccc3-c3ccc4c(c3)OCO4)ccc2c(=O)n1-c1cncc2ccccc12` [Example 356], for which the EC50 in the assay on SARS-CoV-2-NLuc (setting [3]) was 52.2 nM. Also, in assay [1] (setting [4]), the IC50 worked out at 130 nM.
For `COc1cnc(C)c(-c2cc3[nH]c(=O)n(-c4cncc5ccccc45)c(=O)c3s2)c1` [Example 718], the EC50 in the assay with SARS-CoV-2-NLuc (setting [3]) is 371 nM. Further, the IC50 in assay [1] (setting [2]) was 106 nM.
Regarding `N#Cc1ccccc1-c1nc2[nH]c(=O)n(-c3cncc4ccccc34)c(=O)c2s1` [Example 118, 2-(6-(isoquinolin-4-yl)-5,7-dioxo-4,5,6,7-tetrahydrothiazolo[4,5-d]pyrimidin-2-yl)benzonitrile], the EC50 with SARS-CoV-2-NLuc (setting [5]) is 11700 nM. The half-maximal inhibitory concentration (IC50) in assay [1] (setting [4]) was 290 nM.
Consider `O=c1[nH]c2cc(-c3ccccc3Cl)ccc2c(=O)n1-c1cnccc1C1CCOCC1` [Example 129], for which the EC50 in the assay on SARS-CoV-2-NLuc (setting [3]) stood at 1230 nM. Further, the IC50 in assay [1] (setting [4]) came to 1030 nM.
For `O=c1c2sc(-c3ccccc3Cl)cc2n(CC2CCOCC2)c(=O)n1-c1cncc2ccccc12` [Example 120, 6-(2-chlorophenyl)-3-(isoquinolin-4-yl)-1-((tetrahydro-2H-pyran-4-yl)methyl)thieno[3,2-d]pyrimidine-2,4(1H,3H)-dione], in that order: 275 nM and 96.8 nM.
As to `COc1cc(-c2cc3c(s2)c(=O)n(-c2cncc4ccccc24)c(=O)n3CC#N)c(Cl)cc1F` (single isomer, unassigned) [Example 634, 2-[6-(2-chloro-4-fluoro-5-methoxy-phenyl)-3-(4-isoquinolyl)-2,4-dioxo-thieno[3,2-d]pyrimidin-1-yl]acetonitrile], in the assay with SARS-CoV-2-NLuc (read-out: MPro EC50), the EC50 turned out to be 31.2 nM. The IC50 in assay [1] (setting [2]) was found to be 29 nM.
Take `COc1cc(-c2cc3c(s2)c(=O)n(-c2cncc4cnccc24)c(=O)n3CCC#N)c(Cl)cc1F` [Example 917]: the EC50 in the assay on SARS-CoV-2-NLuc (setting [3]) worked out at 6.09 nM. Further, the IC50 in assay [1] (setting [2]) stood at 7.5 nM.
For the molecule `COC(=O)[C@H]1C[C@@H]1c1cncc(-n2c(=O)[nH]c3cc(-c4ccccc4Cl)sc3c2=O)c1C` [Example 136], the EC50 in the assay on SARS-CoV-2-NLuc (setting [3]) amounted to 11100 nM. Further, in assay [1] (setting [4]), the IC50 is more than 50000 nM.
In the case of `Cn1c(C(F)(F)F)nc2cncc(-n3c(=O)c4sc(-c5ccc(F)cc5Cl)cc4n(CCC#N)c3=O)c21` [Example 857], the EC50 in the assay on SARS-CoV-2-NLuc (setting [5]) is 348 nM. The IC50 in assay [1] (setting [2]) came out at 161 nM.
In the case of `COc1cc(-c2cc3[nH]c(=O)n(-c4cncc5cnn(C)c45)c(=O)c3cc2F)c(C#N)cc1F` [Example 766], the EC50 in the assay with SARS-CoV-2-NLuc (setting [3]) turned out to be 102 nM. Besides, the IC50 in assay [1] (setting [2]) worked out at 18.9 nM.
For `N#Cc1ccccc1-c1cc2[nH]c(=O)n(-c3cncc4ccccc34)c(=O)c2cc1F` [Example 67], in the assay on SARS-CoV-2-NLuc (setting [3]), the EC50 was determined as 213 nM. Moreover, the IC50 in assay [1] (setting [4]) turned out to be 88.8 nM.
As to `COc1cnc(Cl)c(-c2cc3c(s2)c(=O)n(-c2cncc4cnn(C)c24)c(=O)n3CCC#N)c1` (single isomer, unassigned) [Example 1091, 3-(6-(2-chloro-5-methoxypyridin-3-yl)-3-(1-methyl-1H-pyrazolo[4,3-c]pyridin-7-yl)-2,4-dioxo-3,4-dihydrothieno[3,2-d]pyrimidin-1(2H)-yl)propanenitrile], the EC50 with SARS-CoV-2-NLuc (read-out: MPro EC50) amounted to 451 nM. The 50% inhibitory concentration (IC50) in assay [1] (setting [2]) came to 141 nM.
As for `O=c1[nH]c2cc(-c3ccccc3Cl)sc2c(=O)n1-c1cncc2ccc(N3C[C@H]4C[C@@H]3CO4)cc12` [Example 394], the EC50 with SARS-CoV-2-NLuc (setting [3]) was 5.75 nM. Moreover, the IC50 in assay [1] (setting [2]) came to 5.1 nM.
For `COc1ccc(Cl)c(-c2ccc3c(=O)n(-c4cncc5ccc(N6CC[C@H](OC)C6)cc45)c(=O)[nH]c3c2)c1` [Example 409], the EC50 in the assay on SARS-CoV-2-NLuc (setting [3]) was 77.4 nM. Further, in assay [1] (setting [2]), the IC50 was 15.7 nM.
For the molecule `COc1cc(-c2cc3[nH]c(=O)n(-c4cnnc5ccccc45)c(=O)c3s2)c(Cl)cc1F` [Example 745], the EC50 with SARS-CoV-2-NLuc (setting [5]) was determined as 257 nM. In addition, the IC50 in assay [1] (setting [2]) was found to be 92 nM.
Regarding `N#Cc1ccccc1-c1ccc2c(=O)n(-c3cncc4ccccc34)c(=O)[nH]c2c1` [Example 65, 2-(3-(isoquinolin-4-yl)-2,4-dioxo-1,2,3,4-tetrahydroquinazolin-7-yl)benzonitrile], the EC50 with SARS-CoV-2-NLuc (setting [3]) turned out to be 286 nM. Further, the IC50 in assay [1] (setting [4]) was 108 nM.
In the case of `Cc1cncc(-n2c(=O)c3sc(-c4ccc(F)cc4C#N)cc3n(CCC#N)c2=O)c1` [Example 880], in the assay with SARS-CoV-2-NLuc (setting [5]), the concentration for a half-maximal effect (EC50) was 42.3 nM. Also, in assay [1] (setting [2]), the half-inhibitory concentration (IC50) is 10.6 nM.
For the molecule `O=c1[nH]c2cc(-c3cc(Cl)cc(Cl)c3)ccc2c(=O)n1-c1cncc2ccccc12` [Example 53], the EC50 in the assay on SARS-CoV-2-NLuc (setting [3]) is 4330 nM. Besides, the IC50 in assay [1] (setting [4]) is 33200 nM.
Take `COc1cc(-c2cc3c(s2)c(=O)n(-c2cncc4cnn(C)c24)c(=O)n3CC2CCCN2C)c(Cl)cc1F` (stereo not drawn) [Example 1071]: the EC50 in the assay with SARS-CoV-2-NLuc (setting [3]) is 306 nM. In addition, the IC50 in assay [1] (setting [2]) worked out at 102 nM.
With `Cn1cc(-c2cccc(Cl)c2-c2ccc3c(=O)n(-c4cncc5ccccc45)c(=O)[nH]c3c2)cn1` [Example 144], in the assay with SARS-CoV-2-NLuc (setting [3]), the EC50 stood at 68.2 nM. For the same molecule, in assay [1] (setting [4]), the IC50 is 95.4 nM.
With `Cn1cc2ccc(-n3c(=O)n(-c4cncc5ccccc45)c(=O)c4sc(-c5ccccc5Cl)cc43)cc2n1` [Example 152, 6-(2-chlorophenyl)-3-(isoquinolin-4-yl)-1-(2-methyl-2H-indazol-6-yl)thieno[3,2-d]pyrimidine-2,4(1H,3H)-dione], the EC50 in the assay with SARS-CoV-2-NLuc (setting [3]) worked out at 149 nM. In addition, the 50% inhibitory concentration (IC50) in assay [1] (setting [4]) turned out to be 85.8 nM.
Take `COc1ccc(Cl)c(-c2cc3[nH]c(=O)n(-c4cncc5nc(C67CC(F)(C6)C7)n(C)c45)c(=O)c3s2)c1` [Example 436]: the EC50 with SARS-CoV-2-NLuc (setting [5]) was 489 nM. Further, the half-inhibitory concentration (IC50) in assay [1] (setting [2]) was found to be 164 nM.
`Cc1nn(C)cc1-c1cccc(Cl)c1-c1ccc2c(=O)n(-c3cncc4ccccc34)c(=O)[nH]c2c1` [Example 148]: in the assay with SARS-CoV-2-NLuc (setting [3]), the EC50 was determined as 14.1 nM. In addition, the IC50 in assay [1] (setting [4]) is 10.4 nM.
Take `Cn1ncc2cncc(-n3c(=O)c4sc(-c5ccccc5Cl)cc4n(CCC#N)c3=O)c21` [Example 781]: in the assay on SARS-CoV-2-NLuc (setting [3]), the concentration for a half-maximal effect (EC50) came out at 4.81 nM. The IC50 in assay [1] (setting [2]) is 5.06 nM.
Turning to `COc1ccc(C#N)c(-c2cc3[nH]c(=O)n(-c4cncc5ccc(N6CCn7c(nnc7C(F)(F)F)C6)cc45)c(=O)c3s2)c1` [Example 602], the EC50 in the assay on SARS-CoV-2-NLuc (setting [3]) stood at 359 nM. In assay [1] (setting [2]), the half-inhibitory concentration (IC50) was determined as 5.77 nM.
As for `COc1cc(-c2cc3[nH]c(=O)n(-c4cncc5ccccc45)c(=O)c3s2)ccc1F` [Example 469, 6-(4-fluoro-3-methoxy-phenyl)-3-(4-isoquinolyl)-1H-thieno[3,2-d]pyrimidine-2,4-dione], the EC50 in the assay with SARS-CoV-2-NLuc (setting [3]) amounted to 334 nM. In addition, the IC50 in assay [1] (setting [2]) came out at 276 nM.
With `O=c1[nH]c2cc(-c3c(Cl)cccc3-c3ccnnc3)sc2c(=O)n1-c1cncc(C2CC2)c1` [Example 616], the EC50 with SARS-CoV-2-NLuc (setting [3]) was found to be 320 nM. Also, the IC50 in assay [1] (setting [2]) was 6.92 nM.
